Data on 15 compounds can be found in patent US20240262801A1, “COMPOUNDS HAVING 5-(2-FLUORO-6-HYDROXYPHENYL)-1,2,5-THIADIAZOLIDIN-3-ONE 1,1-DIOXIDE AS INHIBITORS OF PROTEIN KINASE PHOSPHATASE ENZYMES” (Ness Therapeutics, Inc., priority 2021, published 2024).

Assay [1] deals with B16F10 mouse melanoma cells. The assay can be described thus: Tumor cells B16F10 cellular growth IFNγ-induced inhibition assay (CellTiter-Glo). The format is cell-based. Conditions: for pIC50: B16-F10, 72 h, 3 days incubation; for inhibition at 100 µM: B16-F10, B16F10, 100 μM compound; for inhibition at 40 µM: B16-F10, B16F10, 40 μM compound. The protocol:
B16F10 mouse melanoma cells (ATCC Cat #CRL-6475) were seeded at a density of 500 cells per well in a 384-well clear bottom plate (Corning Cat #3712, Corning, N.Y.) in 40 μL total volume of DMEM+10% FBS (PanEco Cat #C420, Russia and Sigma Cat #F4135, St. Louis, Mo.). Cells were allowed to adhere overnight at 37° C., 5% CO2. On the following day, 250× solutions of compounds in DMSO (Sigma Cat #D2650) were prepared into […] plate (Diamond Well Plate, Axigen, Cat #P-384-120SQ-C-S) (final concentration of 1×) and DMSO only controls were included. Dilution Plate (Diamond Well Plate (Axigen, Cat #P-384-120SQ-C-S) was prepared by adding 49 μL of culture medium per well: half of the plate with culture medium only, half with culture medium+IFNγ (5 ng/ml). A 1 μL aliquot of 250× compounds ([…] plate) was added to 49 μL of culture medium (Dilution plate), then a 10 μL aliqut of the mixture was transferred to Reaction plate with 40 μL of cells followed by centrifugation at 240 g for 1 min. After 3 days of incubation, 10 μL of CellTiter-Glo (Promega) was added to the cells, plates were centrifuged at 240 g for 1 min, and luminescence signal was measured. For each compound, the percent growth inhibition at every compound dose level was calculated relative to the “DMSO/with IFNγ” control and used to determine the IC50.
(Cellular ATP, detected with luciferase, serves as a proxy for viable cell number.)

The target in the next assay is T1, GST-tagged PTPN2 protein (Homo sapiens, UniProt P17706).
T1 construct: purchased ActiveMotif 31592
The experiment in a line: Primary assay of PTPN2 enzymatic activity inhibition (DiFMUP fluorescence). The format is biochemical. Conditions: DiFMUP substrate 2 μM, 60 min at RT. The method, then: Compound activity was determined using GST-tagged PTPN2 protein (Cat #31592, ActiveMotif) (SEQ ID NO: 1) in an in vitro enzymatic reaction. The enzymatic reaction was carried out in assay buffer (50 mM HEPES Na salt pH 7.2-7.4, 2 mM EDTA, 100 mM NaCl, 52 ng/μL BSA, and 6 mM DTT). The compounds were dispensed on a 384 well Diamond Well Plate (Axigen, Cat #P-384-120SQ-C-S) using the Biomek FX liquid handling system at 100× solutions of compounds in DMSO. 2× PTPN2 (final concentration 0.004 ng/μL) was prepared in 1× Assay buffer and 25 μL of mixture per well was added into Reaction plate (Optiplate, black, Perkin Elmer, Cat #6007270). Add 25 μL of 1× buffer to Ctrl- (Substrate w/o PTPN2) wells followed by centrifugation at 100 g for 1 min. Next step the Compounds were added to Reaction plate using Biomek station via following steps: 3 ul of 100× compounds (in DMSO) were mixed with 27 μL of Assay Buffer, then 5 μL of this mixture was added to Reaction plate with 25 μL of PTPN2 Mix. Plates were centrifuged for 1 min at 100 g and incubated for another 10 minutes at room temperature. Finally, 20 μL of 2.5× Substrate (DiFUMP, Invitrogen™ Cat #D6567) mix was added into appropriate wells of Reaction plate to the final concentration of 2 μM, plate was centrifuged at 100 g for 1 min followed by incubation at RT for 60 min, and the Fluorescence Intensity was measured using a Microplate Reader (ClarioStar Plus, excitation 360 nm, emission 450 nm). The % inhibition was then used to calculate the IC50 values. The IC50 values are shown in Table A1, wherein “A” corresponds to IC50<5.0 nm, “B” corresponds to 5.0 nm≤IC50<10.0 nm, “C” corresponds to 10.0 nm≤IC50<50.0 nm, “D” corresponds to 50.0 nm≤IC50<100.0 nm, and “E” corresponds to 100.0 nm≤IC50<500.0 nm, and “F” corresponds to 500.0 nm≤IC50.

Where [2] appears, read: B16F10, + IFNγ, read-out: IC50 + IFNγ.
Where [3] appears, read: B16F10, no IFNγ, read-out: IC50 no IFNγ.
Setting [4] is: + IFNγ, read-out: % Growth Inhibition at 100 μM + IFNγ.
The mark [5] stands for this setting: no IFNγ, read-out: % Growth Inhibition at 100 μM no IFNγ.

pIC50: −log10 of the molar value. Read-outs that look alike come from different tables or passages of the source.

T1 sequence (P17706 with tags, fused parts or gaps): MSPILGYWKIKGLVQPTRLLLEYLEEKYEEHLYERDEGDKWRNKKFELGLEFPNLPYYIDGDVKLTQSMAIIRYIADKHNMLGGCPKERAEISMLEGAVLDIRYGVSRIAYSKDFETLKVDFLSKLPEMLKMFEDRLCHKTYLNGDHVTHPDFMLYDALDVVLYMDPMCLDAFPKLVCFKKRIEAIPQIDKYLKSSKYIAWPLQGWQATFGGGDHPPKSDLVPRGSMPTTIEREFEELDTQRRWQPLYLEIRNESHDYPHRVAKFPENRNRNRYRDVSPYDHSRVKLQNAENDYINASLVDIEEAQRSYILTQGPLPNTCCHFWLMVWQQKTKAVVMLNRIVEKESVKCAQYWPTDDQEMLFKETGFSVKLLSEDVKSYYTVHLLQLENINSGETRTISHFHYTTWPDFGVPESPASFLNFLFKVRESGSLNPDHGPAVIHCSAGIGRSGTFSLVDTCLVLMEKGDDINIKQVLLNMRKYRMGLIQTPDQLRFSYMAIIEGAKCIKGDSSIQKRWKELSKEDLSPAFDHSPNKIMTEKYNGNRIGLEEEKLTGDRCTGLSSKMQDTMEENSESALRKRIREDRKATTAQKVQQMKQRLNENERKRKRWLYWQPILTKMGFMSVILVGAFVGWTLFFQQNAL

As usually defined, the pIC50 is the negative decadic logarithm of the IC50, by convention in mol/L. The inhibition is the drop in the measured response relative to a control, in per cent. Consider `Cc1cccc(NC(=O)Nc2cc(O)c(N3CC(=O)NS3(=O)=O)c(F)c2)c1` [Example 42, 1-[4-(1,1-dioxido-4-oxo-1,2,5-thiadiazolidin-2-yl)-3-fluoro-5-hydroxyphenyl]-3-(3-methylphenyl)urea], for which the pIC50 in assay [1] (setting [2]) was no more than 4.00; in assay [1] (setting [3]), no more than 4.00; against GST-tagged PTPN2 protein it was greater than 8.30. The inhibition at 100 µM in assay [1] (setting [4]) and in assay [1] (setting [5]) was 10 to 50% in each case.

As to `O=C1CN(c2c(O)cc(NC(=O)Nc3ccc(F)cc3)cc2F)S(=O)(=O)N1` [Example 53, 1-[4-(1,1-dioxido-4-oxo-1,2,5-thiadiazolidin-2-yl)-3-fluoro-5-hydroxyphenyl]-3-(4-fluorophenyl)urea], the pIC50 is no more than 4.00 in assay [1] (setting [2]), no more than 4.00 in assay [1] (setting [3]) and 8.00 to 8.30 against GST-tagged PTPN2 protein. Moreover, the inhibition at 100 µM in assay [1] (setting [4]) and in assay [1] (setting [5]) was 10 to 50% in each case.

For `Cc1ccccc1NC(=O)Nc1cc(O)c(N2CC(=O)NS2(=O)=O)c(F)c1` [Example 39, 1-[4-(1,1-dioxido-4-oxo-1,2,5-thiadiazolidin-2-yl)-3-fluoro-5-hydroxyphenyl]-3-(2-methylphenyl)urea], the pIC50 in assay [1] (setting [2]) is 4.00 to 4.30; in assay [1] (setting [3]), no more than 4.00; at GST-tagged PTPN2 protein it was 7.30 to 8.00. Besides, the inhibition at 100 µM fell in the range of 50 to 75% in assay [1] (setting [4]) and 10 to 50% in assay [1] (setting [5]).

`CCCCS(=O)(=O)Nc1cc(O)c(N2CC(=O)NS2(=O)=O)c(F)c1` [Example 28, N-[4-(1,1-dioxido-4-oxo-1,2,5-thiadiazolidin-2-yl)-3-fluoro-5-hydroxyphenyl]butane-1-sulfonamide]: the pIC50 in assay [1] (setting [2]) is 4.00 to 4.30; in assay [1] (setting [3]) it was no more than 4.00; on GST-tagged PTPN2 protein it was 6.30 to 7.00. For the same compound, the results for the inhibition at 100 µM in assay [1] (setting [4]) and in assay [1] (setting [5]) were 50 to 75% and 10 to 50%, respectively.

`O=C1CN(c2c(O)cc(NC(=O)Nc3ccc(C(F)(F)F)cc3)cc2F)S(=O)(=O)N1` [Example 41, 1-[4-(1,1-dioxido-4-oxo-1,2,5-thiadiazolidin-2-yl)-3-fluoro-5-hydroxyphenyl]-3-[4-(trifluoromethyl)phenyl]urea]: the values for the pIC50 (in assay [1] (setting [2]); in assay [1] (setting [3]); against GST-tagged PTPN2 protein) were 4.00 to 4.30, no more than 4.00 and 8.00 to 8.30, respectively. Also, the figures for the inhibition at 100 µM in assay [1] (setting [4]) and in assay [1] (setting [5]) were 50 to 75% and 10 to 50%, respectively.

As to `Cc1ccc(-c2cc(C(F)(F)F)nn2-c2ccc(S(=O)(=O)Nc3cc(O)c(N4CC(=O)NS4(=O)=O)c(F)c3)cc2)cc1` [Example 19, N-[4-(1,1-dioxido-4-oxo-1,2,5-thiadiazolidin-2-yl)-3-fluoro-5-hydroxyphenyl]-4-[5-(4-methylphenyl)-3-(trifluoromethyl)-1H-pyrazol-1-yl]benzenesulfonamide], the pIC50 in assay [1] (setting [2]) was no more than 4.00; in assay [1] (setting [3]), no more than 4.00; against GST-tagged PTPN2 protein, 6.30 to 7.00. In addition, the inhibition at 100 µM in assay [1] (setting [4]) and in assay [1] (setting [5]) was 10 to 50% each time.

As to `Cc1ccc(S(=O)(=O)Nc2cc(O)c(N3CC(=O)NS3(=O)=O)c(F)c2)cc1` [Example 18, N-[4-(1,1-dioxido-4-oxo-1,2,5-thiadiazolidin-2-yl)-3-fluoro-5-hydroxyphenyl]-4-methylbenzenesulfonamide], the negative-log IC50 (pIC50) in assay [1] (setting [2]) is 4.00 to 4.30; in assay [1] (setting [3]), no more than 4.00; at GST-tagged PTPN2 protein, 7.30 to 8.00. For the same compound, the values for the inhibition at 100 µM in assay [1] (setting [4]) and in assay [1] (setting [5]) were 50 to 75% and 10 to 50%, respectively.

Regarding `O=C1CN(c2c(O)cc(NC(=O)NC3CCN(S(=O)(=O)c4ccccc4Cl)CC3)cc2F)S(=O)(=O)N1` [Example 51, 1-{1-[(2-chlorophenyl)sulfonyl]piperidin-4-yl}-3-[4-(1,1-dioxido-4-oxo-1,2,5-thiadiazolidin-2-yl)-3-fluoro-5-hydroxyphenyl]urea], the pIC50 is no more than 4.00 in assay [1] (setting [2]), no more than 4.00 in assay [1] (setting [3]) and greater than 8.30 on GST-tagged PTPN2 protein. For the same compound, the inhibition at 100 µM in assay [1] (setting [4]) and in assay [1] (setting [5]) was 10 to 50% throughout.

Regarding `CC(C)(C)c1ccc(S(=O)(=O)Nc2cc(O)c(N3CC(=O)NS3(=O)=O)c(F)c2)cc1` [Example 24, 4-tert-butyl-N-[4-(1,1-dioxido-4-oxo-1,2,5-thiadiazolidin-2-yl)-3-fluoro-5-hydroxyphenyl]benzenesulfonamide], the figures for the pIC50 (in assay [1] (setting [2]); in assay [1] (setting [3]); on GST-tagged PTPN2 protein) were no more than 4.00, no more than 4.00 and 7.30 to 8.00, respectively. For the same compound, the inhibition at 100 µM in assay [1] (setting [4]) was 50 to 75%; in assay [1] (setting [5]), 10 to 50%.

Regarding `COc1ccc(S(=O)(=O)Nc2cc(O)c(N3CC(=O)NS3(=O)=O)c(F)c2)cc1OC` [Example 26, N-[4-(1,1-dioxido-4-oxo-1,2,5-thiadiazolidin-2-yl)-3-fluoro-5-hydroxyphenyl]-3,4-dimethoxybenzenesulfonamide], the pIC50 was 4.30 to 5.00 in assay [1] (setting [2]), no more than 4.00 in assay [1] (setting [3]) and 7.30 to 8.00 against GST-tagged PTPN2 protein. Besides, the inhibition at 100 µM in assay [1] (setting [4]) is 50 to 75%; in assay [1] (setting [5]) it was 10 to 50%.

On to `COc1ccc(C(=O)Nc2cc(O)c(N3CC(=O)NS3(=O)=O)c(F)c2)cc1` [Example 15, N-[4-(1,1-dioxido-4-oxo-1,2,5-thiadiazolidin-2-yl)-3-fluoro-5-hydroxyphenyl]-4-methoxybenzamide], for which the figures for the negative logarithm of the IC50 (pIC50) (in assay [1] (setting [2]); in assay [1] (setting [3]); against GST-tagged PTPN2 protein) were 4.30 to 5.00, 4.30 to 5.00 and 6.30 to 7.00, respectively. Moreover, the inhibition at 40 µM lay in the range of 10 to 50% in assay [1] (+ IFNγ, read-out: % Growth Inhibition + IFNγ @ 40 μM) and 10 to 50% in assay [1] (no IFNγ, read-out: % Growth Inhibition no IFNγ @ 40 μM).

With `O=C1CN(c2c(O)cc(NC(=O)Nc3ccccc3Cl)cc2F)S(=O)(=O)N1` [Example 48, 1-(2-chlorophenyl)-3-[4-(1,1-dioxido-4-oxo-1,2,5-thiadiazolidin-2-yl)-3-fluoro-5-hydroxyphenyl]urea], the pIC50 was no more than 4.00 in assay [1] (setting [2]), no more than 4.00 in assay [1] (setting [3]) and 8.00 to 8.30 against GST-tagged PTPN2 protein. In addition, the inhibition at 100 µM in assay [1] (setting [4]) and in assay [1] (setting [5]) was 10 to 50% in each case.

In the case of `O=C1CN(c2c(O)cc(NC(=O)NC3CCCCC3O)cc2F)S(=O)(=O)N1` (stereo not drawn) [Example 105, 1-[3-fluoro-5-hydroxy-4-(1,1,4-trioxo-1,2,5-thiadiazolidin-2-yl)phenyl]-3-(2-hydroxycyclohexyl)urea], the pIC50 is 5.00 to 5.30 in assay [1] (setting [2]), no more than 4.00 in assay [1] (setting [3]) and greater than 8.30 against GST-tagged PTPN2 protein. Besides, the inhibition at 100 µM in assay [1] (setting [4]) fell in the range of 75 to 100%; in assay [1] (setting [5]), 10 to 50%.

On to `O=C1CN(c2c(O)cc(NC(=O)Nc3ccccc3C(F)(F)F)cc2F)S(=O)(=O)N1` [Example 55, 1-[4-(1,1-dioxido-4-oxo-1,2,5-thiadiazolidin-2-yl)-3-fluoro-5-hydroxyphenyl]-3-[2-(trifluoromethyl)phenyl]urea], for which the pIC50 was no more than 4.00 in assay [1] (setting [2]), no more than 4.00 in assay [1] (setting [3]) and 8.00 to 8.30 on GST-tagged PTPN2 protein. Also, the inhibition at 100 µM in assay [1] (setting [4]) and in assay [1] (setting [5]) was 10 to 50% in each case.

Consider `COc1ccc(C(=O)Nc2cc(O)c(N3CC(=O)NS3(=O)=O)c(F)c2)cc1OC` [Example 14, N-[4-(1,1-dioxido-4-oxo-1,2,5-thiadiazolidin-2-yl)-3-fluoro-5-hydroxyphenyl]-3,4-dimethoxybenzamide], for which the pIC50 in assay [1] (setting [2]) is 4.30 to 5.00; in assay [1] (setting [3]), no more than 4.00; against GST-tagged PTPN2 protein, 6.30 to 7.00. The inhibition at 100 µM in assay [1] (setting [4]) was 50 to 75%; in assay [1] (setting [5]), 10 to 50%.
